Columns and labels:
dogs [1] = experiment: Dog toxicology study using buccal delivery for up to 4 weeks; assay type: in vivo; details: for maximum systemic concentration of fipamezole: buccal, first day
Protocol: (§1) Cardiac safety was studied in dogs in a 30-day dog toxicology study using oral dosing and dog toxicology studies using buccal dosing.
Maximum systemic concentrations of fipamezole after dosing on the first day of this study were about 800, 2000 and 3300 ng/ml.

dogs [2] = experiment: Dog toxicology study, buccal spray, sequential dosing regimen (blood pressure, heart rate, ECG); assay type: in vivo
Protocol: as §1
In another toxicology study four male dogs were given fipamezole in buccal spray doses of 1, 5 and 10 mg/kg in a sequential dosing regimen with 5 to 15 days between doses. Blood pressure (systolic, diastolic and mean), heart rate and ECGs were monitored before and up to 12 hours after dosing.

[3] = Plasma levels of fipamezole in healthy male volunteers after a single 30 mg dose (oral, oromucosal tablet, oromucosal spray); assay type: in vivo, human; details: for AUC(0-inf) / Cmax / Tmax: human, plasma; for AUC(0-inf) / Cmax / t1/2el: mean
Protocol: Plasma levels of fipamezole were studied in healthy male volunteers after oral administration of the drug as a solution. Blood samples for pharmcokinetic evaluation were collected for 24 hours after the drug administration. The concentration of fipamezole in plasma was measured with HPLC-MS/MS, and the pharmacokinetic parameters were calculated. The pharmacokinetics of fipamezole was evaluated with TopFit 2.0 pharmacokinetic program. The Cmax and tmax values were read from the concentration vs. time curves, and the apparent elimination phase half-lives from the terminal part of the semilogarithmic concentration vs. time curve (see FIG. 1). AUC values were calculated both to infinity and up to the last collection time with quantifiable fipamezole concentration. Mean plasma concentration time plot following single dose administration of 30 mg fipamezole via an oral, oromucosal spray and an oromucosal tablet on a semilogarithmic scale is shown in FIG. 1.

dogs [4] = experiment: 30-day dog toxicology study using oral dosing (cardiac safety); assay type: in vivo; details: for maximum systemic fipamezole concentration: oral
Protocol: as §1
In the 30-day dog toxicology study fipamezole was administered orally at doses of 1, 5, 10 and 15 mg/kg/day for 30 days, resulting in maximum systemic fipamezole concentrations of about 200, 1000, 2000 and 3300 ng/ml, respectively.

[5] = buccal spray 5 and 10 mg/kg, 30 minutes after dosing
[6] = other: oromucosal spray, oromucosal spray
[7] = other: oromucosal tablet, oromucosal tablet

## CCC1(c2c[nH]cn2)Cc2ccc(F)cc2C1.Cl (stereo not drawn) [fipamezole, 4-(2-ethyl-5-fluoroindan-2-yl)-1H-imidazole hydrochloride]
Dogs [1]; buccal delivery 1, 5 and 10 mg/kg/day for up to 4 weeks
  changes in ECG: no apparent changes in ECG
Dogs [1]; 1 mg/kg/day
  maximum systemic concentration of fipamezole: about 800 ng/ml
Dogs [1]; 5 mg/kg/day
  maximum systemic concentration of fipamezole: ~2000 ng/mL
Dogs [1]; 10 mg/kg/day
  maximum systemic concentration of fipamezole: ~3300 ng/mL
Dogs [2]; buccal spray 1, 5 and 10 mg/kg, each dose level, up to 12 hours after dosing
  ECG changes (P wave amplitude, P wave duration, P-Q interval, QRS interval or Q-T interval): No ECG changes
Dogs [2]; [5]
  blood pressure (absolute values): significant transient increases
  heart rate (absolute values): significant transient increases
[3]; oral (solution)
  AUC(0-inf): 7.65 ng·h/mL
  Cmax: 1.59 ng/mL
  t1/2el: 3.10 h
[3]; oral (solution), median
  Tmax: 1 h
[3]; [6]
  AUC(0-inf): 157 ng·h/mL
  Cmax: 49.2 ng/mL
[3]; other: oromucosal spray, oromucosal spray, median
  Tmax: 0.7 h
[3]; [7]
  Tmax: 0.85 h
  AUC(0-inf): 116 ng·h/mL
  Cmax: 31.7 ng/mL
[3]; oromucosal spray
  t1/2el: 2.10 h
[3]; oromucosal tablet
  t1/2el: 3.10 h
Dogs [4]; high oral doses, 30-day study
  systemic concentration of fipamezole at which QT prolongation was observed: about 2000 ng/ml
Dogs [4]; 1 mg/kg/day for 30 days
  maximum systemic fipamezole concentration: about 200 ng/ml
Dogs [4]; 5 mg/kg/day for 30 days
  maximum systemic fipamezole concentration: ~1000 ng/mL
Dogs [4]; 10 mg/kg/day for 30 days
  maximum systemic fipamezole concentration: about 2000 ng/ml
Dogs [4]; 15 mg/kg/day for 30 days
  maximum systemic fipamezole concentration: ~3300 ng/mL
